The results in this text go back to ChEMBL document CHEMBL1129677, “3 alpha-(4'-substituted phenyl)tropane-2 beta-carboxylic acid methyl esters: novel ligands with high affinity and selectivity at the dopamine transporter” (J Med Chem, 1996).

Assay [1] addresses Sodium-dependent dopamine transporter (Rattus norvegicus, UniProt P23977). Description: Inhibition of [3H]WIN-35428 binding to Dopamine transporter.
Assay [2] concerns the target Norepinephrine transporter (Rattus norvegicus, UniProt Q9WTR4). The assay is described as follows: Binding potency for Norepinephrine transporter using [3H]NE.
Assay [3] addresses Sodium-dependent serotonin transporter (Rattus norvegicus, UniProt P31652). Description: Binding potency for Serotonin transporter using [3H]- paroxetine.

Sodium-dependent serotonin transporter, sequence (P31652 whole entry): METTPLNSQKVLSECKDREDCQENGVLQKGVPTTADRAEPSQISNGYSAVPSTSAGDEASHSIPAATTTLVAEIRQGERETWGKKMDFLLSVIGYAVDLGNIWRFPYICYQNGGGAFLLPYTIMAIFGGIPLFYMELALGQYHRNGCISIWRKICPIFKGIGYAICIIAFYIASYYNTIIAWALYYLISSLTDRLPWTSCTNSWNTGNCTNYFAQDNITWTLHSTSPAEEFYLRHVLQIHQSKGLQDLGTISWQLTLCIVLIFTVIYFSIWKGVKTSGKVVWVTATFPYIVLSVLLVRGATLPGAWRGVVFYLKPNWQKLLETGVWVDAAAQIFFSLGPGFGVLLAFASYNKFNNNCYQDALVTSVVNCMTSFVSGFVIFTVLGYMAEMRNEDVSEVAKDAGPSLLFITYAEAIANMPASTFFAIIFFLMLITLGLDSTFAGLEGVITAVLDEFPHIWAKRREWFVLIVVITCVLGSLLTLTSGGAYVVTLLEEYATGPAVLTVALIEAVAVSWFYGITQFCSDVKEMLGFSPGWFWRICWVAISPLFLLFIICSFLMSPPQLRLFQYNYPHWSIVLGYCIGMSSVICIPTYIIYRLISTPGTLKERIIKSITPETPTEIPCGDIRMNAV
Sodium-dependent dopamine transporter, sequence (P23977 whole entry): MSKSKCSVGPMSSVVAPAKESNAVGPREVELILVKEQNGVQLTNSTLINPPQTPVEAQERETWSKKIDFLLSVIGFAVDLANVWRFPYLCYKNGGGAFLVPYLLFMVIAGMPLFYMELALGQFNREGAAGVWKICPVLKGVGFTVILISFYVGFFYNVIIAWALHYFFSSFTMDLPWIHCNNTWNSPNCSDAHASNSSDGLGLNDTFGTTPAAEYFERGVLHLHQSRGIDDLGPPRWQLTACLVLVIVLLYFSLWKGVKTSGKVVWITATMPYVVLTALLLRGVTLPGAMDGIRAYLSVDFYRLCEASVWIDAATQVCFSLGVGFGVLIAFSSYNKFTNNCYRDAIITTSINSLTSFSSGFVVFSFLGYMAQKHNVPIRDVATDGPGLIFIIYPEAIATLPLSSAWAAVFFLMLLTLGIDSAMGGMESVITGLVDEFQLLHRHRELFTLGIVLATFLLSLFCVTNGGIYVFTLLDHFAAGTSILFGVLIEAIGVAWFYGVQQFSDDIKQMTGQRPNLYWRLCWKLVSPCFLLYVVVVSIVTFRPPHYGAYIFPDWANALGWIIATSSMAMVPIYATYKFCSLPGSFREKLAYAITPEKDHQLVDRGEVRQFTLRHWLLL
Norepinephrine transporter, sequence (Q9WTR4 whole entry): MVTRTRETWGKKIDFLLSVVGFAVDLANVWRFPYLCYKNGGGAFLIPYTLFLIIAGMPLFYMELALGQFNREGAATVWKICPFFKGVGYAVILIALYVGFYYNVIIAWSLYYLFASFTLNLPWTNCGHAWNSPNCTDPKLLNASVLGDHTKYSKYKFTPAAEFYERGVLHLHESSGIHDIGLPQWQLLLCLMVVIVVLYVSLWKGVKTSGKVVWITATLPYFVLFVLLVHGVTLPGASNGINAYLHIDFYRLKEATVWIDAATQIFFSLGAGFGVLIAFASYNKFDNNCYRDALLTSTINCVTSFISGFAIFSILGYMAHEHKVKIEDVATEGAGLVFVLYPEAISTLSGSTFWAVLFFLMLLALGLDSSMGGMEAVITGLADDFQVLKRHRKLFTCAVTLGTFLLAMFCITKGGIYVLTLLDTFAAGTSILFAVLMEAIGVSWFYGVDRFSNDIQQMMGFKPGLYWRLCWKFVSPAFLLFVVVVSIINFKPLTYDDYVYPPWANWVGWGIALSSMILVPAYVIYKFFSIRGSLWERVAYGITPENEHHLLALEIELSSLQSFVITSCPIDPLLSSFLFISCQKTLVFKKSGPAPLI

For orientation: IC50 means the midpoint of a concentration-inhibition curve. Read a high IC50 as weaker potency. Turning to `COC(=O)C1C(c2ccc(C)cc2)CC2CCC1N2C` (centres undefined), the values for the half-maximal inhibitory concentration (IC50) in assay [1] and in assay [2] were 10.2 nM and 275 nM, respectively.
Compound `COC(=O)[C@H]1[C@@H](c2ccc(F)cc2)C[C@H]2CC[C@H]1N2C` (stereo in doubt; 1a) showed a half-inhibitory concentration (IC50) in assay [3] of 810 nM.
Same read-out and setting: the same measure for `COC(=O)[C@H]1[C@@H](c2ccc(F)cc2)C[C@H]2CC[C@H]1N2C` (stereo in doubt; 2a): 5060 nM.
On to `COC(=O)C1C(c2ccc(Cl)cc2)CC2CCC1N2C` (stereo in doubt; 2c), for which the figures for the 50% inhibitory concentration (IC50) in assay [1] and in assay [3] were 2.4 nM and 998 nM, respectively.
In assay [1], `COC(=O)[C@@H]1C2CC[C@H](C[C@@H]1c1ccccc1)N2C` (stereo in doubt; 2e) returned an IC50 of 101 nM.
For the compound `COC(=O)C1C(c2ccc(I)cc2)CC2CCC1N2C` (stereo in doubt; form 1), the IC50 in assay [1] is 2.85 nM; in assay [2] it was 52.4 nM.
